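Growth conditions: 96-well plates. Treatment: test compound, 48 hours, 5 concentrations. Analysis: linear interpolation between bracketing concentrations; unreached endpoints set to highest concentration. TGI: total growth inhibition.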
Legend:
Test in all cases: growth of human tumour cells (NCI), 48 h
[1] = system: UO-31 renal
[2] = system: NCI-H522 lung
[3] = system: T-47D breast
[4] = system: SR leukemia
[5] = system: MDA-MB-435
[6] = system: HOP-62 NSCLC
[7] = system: SF-295 CNS
[8] = system: RXF 393 renal
[9] = system: MDA-MB-231 breast
[10] = system: NCI-H23 lung
[11] = system: U251 CNS
[12] = system: OVCAR-4 ovarian
[13] = system: HCC-2998 colon
[14] = system: UACC-62 melanoma
[15] = system: M14 melanoma
[16] = system: EKVX NSCLC
[17] = system: MDA-N
[18] = system: NCI-H460 lung
[19] = system: SN12C renal
[20] = system: NCI/ADR-RES ovarian
[21] = system: HS 578T breast
[22] = system: BT-549 breast
[23] = system: COLO 205 colon
[24] = system: A498 renal
[25] = system: SK-OV-3 ovarian
[26] = system: CAKI-1 renal
[27] = system: HL-60(TB) leukemia
[28] = system: CCRF-CEM leukemia
[29] = system: SF-268 CNS
[30] = system: SK-MEL-2 melanoma
[31] = system: SK-MEL-5 melanoma
[32] = system: ACHN renal
[33] = system: NCI-H226 lung
[34] = system: IGROV1 ovarian
[35] = system: TK-10 renal
[36] = system: A549 NSCLC
[37] = system: RPMI-8226 leukemia
[38] = system: HCT-116 colon
[39] = system: KM12 colon
[40] = system: K-562 leukemia
[41] = system: OVCAR-5 ovarian
[42] = system: SNB-19 CNS
[43] = system: OVCAR-3 ovarian
[44] = system: SK-MEL-28 melanoma
[45] = system: HCT-15 colon
[46] = system: SF-539 CNS
[47] = system: 786-0 renal
[48] = system: LOX IMVI melanoma
[49] = system: DU-145 prostate
[50] = system: HT29 colon
[51] = system: OVCAR-8 ovarian
[52] = system: SW-620 colon
[53] = system: MALME-3M melanoma
[54] = system: SNB-75 CNS
[55] = system: MCF7 breast
[56] = system: PC-3 prostate
[57] = system: HOP-92 NSCLC
[58] = system: UACC-257 melanoma
[59] = system: MOLT-4 leukemia
[60] = system: DMS 114 small cell lung
[61] = system: SNB-78 CNS
[62] = system: M19-MEL melanoma
[63] = system: HOP-18 NSCLC
[64] = system: LXFL 529 NSCLC
[65] = system: DLD-1 colon
[66] = system: XF 498 CNS
[67] = system: KM20L2 colon

## C[C@H]1CCC/C=C/[C@@H]2C[C@H](OC3OC(CO)C(O)C(O)C3O)C[C@H]2[C@H](O)/C=C/C(=O)O1 (stereo not given in full)
[1]
  TGI: > 100 µM
[2]
  TGI: > 100 µM
[3]
  TGI: > 100 µM
[4]
  TGI: > 100 µM
[5]
  TGI: > 100 µM
[6]
  TGI: > 100 µM
[7]
  TGI: > 100 µM
[8]
  TGI: 87.3 µM
[9]
  TGI: 42.9 µM
[10]
  TGI: > 100 µM
[11]
  TGI: > 100 µM
[12]
  TGI: > 100 µM
[13]
  TGI: > 100 µM
[14]
  TGI: > 100 µM
[15]
  TGI: > 100 µM
[16]
  TGI: > 100 µM
[17]
  TGI: > 100 µM
[18]
  TGI: > 100 µM
[19]
  TGI: > 100 µM
[20]
  TGI: > 100 µM
[21]
  TGI: > 100 µM
[22]
  TGI: > 100 µM
[23]
  TGI: 31.9 µM
[24]
  TGI: 69.1 µM
[25]
  TGI: > 100 µM
[26]
  TGI: > 100 µM
[27]
  TGI: > 100 µM
[28]
  TGI: > 100 µM
[29]
  TGI: > 100 µM
[30]
  TGI: > 100 µM
[31]
  TGI: 31.6 µM
[32]
  TGI: > 100 µM
[33]
  TGI: > 100 µM
[34]
  TGI: > 100 µM
[35]
  TGI: > 100 µM
[36]
  TGI: > 100 µM
[37]
  TGI: > 100 µM
[38]
  TGI: > 100 µM
[39]
  TGI: 98 µM
[40]
  TGI: > 100 µM
[41]
  TGI: > 100 µM
[42]
  TGI: > 100 µM
[43]
  TGI: > 100 µM
[44]
  TGI: 87.3 µM
[45]
  TGI: > 100 µM
[46]
  TGI: > 100 µM
[47]
  TGI: > 100 µM
[48]
  TGI: > 100 µM
[49]
  TGI: > 100 µM
[50]
  TGI: > 100 µM
[51]
  TGI: > 100 µM
[52]
  TGI: > 100 µM
[53]
  TGI: 33.1 µM
[54]
  TGI: > 100 µM
[55]
  TGI: > 100 µM
[56]
  TGI: > 100 µM
[57]
  TGI: > 100 µM
[58]
  TGI: 78.9 µM
[59]
  TGI: > 100 µM

## CC(C)OC(=O)C(NC(=O)C(CC(=O)OCc1ccccc1)NC(=O)OCc1ccccc1)NC(=O)C1C(C)(C)CCC1(C)C (stereo not given)
[1]
  TGI: 13.4 µM
[2]
  TGI: 24.1 µM
[3]
  TGI: > 69.5 µM
[4]
  TGI: 7.5 µM
[5]
  TGI: > 53.3 µM
[6]
  TGI: 18.7 µM
[7]
  TGI: 31.1 µM
[8]
  TGI: 12.7 µM
[9]
  TGI: 7.82 µM
[10]
  TGI: 23.9 µM
[11]
  TGI: 4.68 µM
[12]
  TGI: 14.2 µM
[13]
  TGI: > 56.5 µM
[14]
  TGI: 47.9 µM
[15]
  TGI: > 57.1 µM
[16]
  TGI: 12.2 µM
[17]
  TGI: 24.2 µM
[18]
  TGI: 31.6 µM
[19]
  TGI: 15.1 µM
[20]
  TGI: 21.2 µM
[21]
  TGI: 23.5 µM
[22]
  TGI: 34.3 µM
[23]
  TGI: 9.27 µM
[24]
  TGI: 4.37 µM
[25]
  TGI: 10.4 µM
[26]
  TGI: 21.9 µM
[27]
  TGI: > 40.4 µM
[28]
  TGI: > 41.2 µM
[29]
  TGI: 45.9 µM
[30]
  TGI: 58.4 µM
[31]
  TGI: 27.1 µM
[32]
  TGI: 14.7 µM
[33]
  TGI: 22.8 µM
[34]
  TGI: 64.2 µM
[35]
  TGI: 34.5 µM
[36]
  TGI: 5.07 µM
[37]
  TGI: 24.2 µM
[38]
  TGI: 12 µM
[39]
  TGI: 34.9 µM
[40]
  TGI: 15.9 µM
[41]
  TGI: > 55.6 µM
[42]
  TGI: 16.1 µM
[43]
  TGI: 8.01 µM
[44]
  TGI: > 56.2 µM
[45]
  TGI: 30.7 µM
[46]
  TGI: 13.1 µM
[47]
  TGI: 5.3 µM
[48]
  TGI: 11.6 µM
[49]
  TGI: > 52.4 µM
[50]
  TGI: 14.3 µM
[51]
  TGI: 4.19 µM
[52]
  TGI: 10.8 µM
[53]
  TGI: 44.9 µM
[54]
  TGI: 11.5 µM
[55]
  TGI: 28.4 µM
[56]
  TGI: 11.2 µM
[57]
  TGI: 24.1 µM
[58]
  TGI: > 60.8 µM
[59]
  TGI: > 51 µM

## N#CC(C(=O)Nc1ccccc1)C1=C(Cl)C(=O)c2ccccc2C1=O (stereo not given)
[1]
  TGI: 26.9 µM
[60]
  TGI: 41.7 µM
[2]
  TGI: 29.3 µM
[6]
  TGI: 33.6 µM
[7]
  TGI: 36.5 µM
[8]
  TGI: 31.4 µM
[10]
  TGI: 36.5 µM
[11]
  TGI: 61.5 µM
[12]
  TGI: 31 µM
[13]
  TGI: 45.9 µM
[14]
  TGI: 33.3 µM
[61]
  TGI: 45.9 µM
[15]
  TGI: 30.3 µM
[16]
  TGI: 35.1 µM
[62]
  TGI: 21.8 µM
[18]
  TGI: > 100 µM
[63]
  TGI: 22.7 µM
[64]
  TGI: 35.5 µM
[19]
  TGI: 29.1 µM
[23]
  TGI: 37.3 µM
[24]
  TGI: > 100 µM
[25]
  TGI: > 100 µM
[26]
  TGI: 41.2 µM
[27]
  TGI: 20.5 µM
[28]
  TGI: > 100 µM
[65]
  TGI: 40.2 µM
[29]
  TGI: 31 µM
[30]
  TGI: 32.7 µM
[31]
  TGI: 30.2 µM
[66]
  TGI: 30.3 µM
[33]
  TGI: 30.8 µM
[34]
  TGI: 34.8 µM
[35]
  TGI: 36.7 µM
[36]
  TGI: 43.4 µM
[38]
  TGI: 27.3 µM
[39]
  TGI: 50.7 µM
[40]
  TGI: 52.5 µM
[41]
  TGI: 32.2 µM
[42]
  TGI: 36.3 µM
[43]
  TGI: 34.5 µM
[44]
  TGI: 32.1 µM
[45]
  TGI: 32.6 µM
[46]
  TGI: 28.8 µM
[47]
  TGI: 27.7 µM
[48]
  TGI: 29.8 µM
[67]
  TGI: 48.9 µM
[50]
  TGI: 67.5 µM
[51]
  TGI: 46.1 µM
[52]
  TGI: 50 µM
[53]
  TGI: 26.7 µM
[57]
  TGI: 27.9 µM
[58]
  TGI: 12.8 µM

Source: PubChem BioAssay (NCI)
